Laboratory results as given in patent publication US7820106B2, “Sensor platform, apparatus incorporating the platform and process using the platform” (Novartis AG, priority 1999, dated 2010).
Where a name gives a salt, the structure may show the parent alone. {Cy5} = Cy5 fluorescent dye label

Columns and labels:
β-actin (rat) = test: Gene expression analysis on ER chip: CYP 450 induction in rat liver; conditions: rat liver cDNA, 80 mg/kg daily on 4 consecutive days, normalized treated/control, mean of 10 replicates
Description: (§1) Sensor platforms (dimensions 18×18 mm^2) of the type described with reference to FIG. 2 wee first sonicated twice in chloroform (FLUKA, “purriss.”) and subsequently twice in isopropanol (Merck, “Uvasol”); each for 15 min. The platform were then dried in vacuum and cleaned in a UV cleaner for 30 min (Boeckel industries Inc, model 135500). O-xylene was heated to 75° C. (stirring) and 2% v/v 3-glycidoxypropyl trimethoxysilane (Fluka, “purum”) as well as 0.2% v/v N-ethyldiisopropylamine (Fluka, “purum”) were added to the heated solvent (stirring). The platforms were mounted into racks and then incubated for 7 h in the solution at 75° C. (stirring). Subsequently, the platforms were sonicated three times in fresh acetonitrile (Fluka, “HPLC grade”), each for 15 min. The platforms were then sonicated in a solution of 2% v/v 3-amino-1-propanol (Fluka, “purum”) in acetonitrile for 15 min and then incubated in the same solution over night at room temperature (stirring). Next day, the platforms were first sonicated three times for 15 min in fresh isopropanol (Fluka, “HPLC grade”) and then three times for 15 min in flesh methanol (Merck, “Uvasol”). Finally, the platforms were dried and stored in vacuum. b) Immobilization of Recognition Elements Arrays consisting of 10 different cDNAs (each cDNA 10 replicates: CYP 450 1A1, CYP 450 2B1 EST., CYP 450 2B1, CYP 450 2B2, CYP 450 3A1 human, CYP 450 3A2, CYP 450 4A1, β-actin, GAPDH, external standard) were printed on the platforms with an ink-jet printer (Microdrop GmbH, Norderstedt, Germany). The concentration of the cDNA solutions was 50 ng/μL. The diameter (10 ink-jet droplets/position) was about 250 μm and pitch of the spots was about 500 μm. Therefore, the overall dimension of the 10×10 arrays was about 5×5 mm^2. The arrays were printed in the centre of the platforms with the dimensions (18×18 mm^2). Subsequently, the platforms were incubated over night in a closed container in saturated water vapor atmosphere. Next day, the incubated chips can be baked for a defined period, say 1 minute at 80° C.

CYP 450 2B1 (rat) = test: as above; conditions: rat liver cDNA, 80 mg/kg daily on 4 consecutive days, normalized treated/control, mean of 10 replicates
Description: as §1

CYP 450 4A1 (rat) = test: as above; conditions: rat liver cDNA, 80 mg/kg daily on 4 consecutive days, normalized treated/control, mean of 10 replicates
Description: as §1

CYP 450 3A2 (rat) = test: as above; conditions: rat liver cDNA, 80 mg/kg daily on 4 consecutive days, normalized treated/control, mean of 10 replicates
Description: as §1

GAPDH (rat) = test: as above; conditions: rat liver cDNA, 80 mg/kg daily on 4 consecutive days, normalized treated/control, mean of 10 replicates
Description: as §1

CYP 450 2B2 (rat) = test: as above; conditions: rat liver cDNA, 80 mg/kg daily on 4 consecutive days, normalized treated/control, mean of 10 replicates
Description: as §1

CYP 450 2B1 EST.(rat) = test: as above; conditions: rat liver cDNA, 80 mg/kg daily on 4 consecutive days, normalized treated/control, mean of 10 replicates
Description: as §1

CYP 450 1A1 (rat) = test: as above; conditions: rat liver cDNA, 80 mg/kg daily on 4 consecutive days, normalized treated/control, mean of 10 replicates
Description: as §1

CYP 450 3A1 (human) = test: as above; conditions: rat liver cDNA, 80 mg/kg daily on 4 consecutive days, normalized treated/control, mean of 10 replicates
Description: as §1

[1] = tested on: cPM (capture perfect match) oligonucleotide; test: Oligonucleotide microchip hybridization (SNP discrimination), cPM capture spots; type: binding; conditions: 30 pM analyte, 30 min incubation, room temperature, fluorescence at resonance position
Description: (§2) Sensor platforms (dimensions 18×18 mm2) of the type described with reference to FIG. 2 we first sonicated twice in chlororform (FLUKA, “purum”) and subsequently twice in isopropanol (Merck, “Uvasol”), each 15 min. […] O-xylene was heated to 75° C. […] (stirring). Subsequently, the platforms were washed three times with fresh acetonitrile (Fluka, “HPLC grade”) each for 15 min. Finally the platforms were dried and stored under vacuum. b. Immobilization of Capture Elements
(§3) Two different amino-modified oligonucleotides (capture probes) were printed in a checkerboard-like layout (5×5=25 spots) onto the silanized platforms. […]
(§4) The concentration of the analyte solutions was 30 pM each. f. […] After 30 min of incubation, the platform was washed with 1 ml of HB and a fluorescence image (“PM” in FIG. 9a) was taken in the resonance position of the chip. Subsequently, the bound fluorescence labeled oligonucleotides were removed (stripped) by injection of 2×1 ml of an aqueous 50% urea solution with 2 min of delay between the injections. After additional 2 min the chip was washed by injection of 2×1 ml HB with 2 min delay between the injections and a fluorescence image (“regeneration” in FIG. 9b) was taken in the resonance position of the chip. […] After 30 min of incubation, the platform was again washed with 1 ml of 1B and a fluorescence image (“MM” in FIG. 9c) was taken in the resonance position of the chip. […]

[2] = tested on: cPM and cMM capture oligonucleotides; test: Oligonucleotide microchip SNP discrimination, cPM versus cMM spots; type: binding; conditions: 30 pM analyte, 30 min incubation, room temperature
Description: as §2
Two different amino-modified oligonucleotides (capture probes) were printed in a checkerboard-like layout (5×5=25 spots) onto the silanized platforms. A GMS 417 ring-pin arrayer was used for the printing (Genetic Microsystems, Boston, Mass.). The concentration of the oligonucleotides used as capture molecules was 100 nmol/ml. Diameter of the spots was 125 micrometer with 500 micrometer centre-to-centre distance. The 2 oligonucleotides were called cPM (“capture perfect match”) and cMM (“capture mismatch”) and differ only in one base:
cPM and cMM were labeled with an amino group at the 5′ end which enables covalent binding of the oligonucleotides to the epoxy-functionalized platforms. […] Next day the chips were dried and then washed with 1 ml of aqueous 50% urea solution. Alternatively, an aqueous bovine serum albumine solution (BSA, 1 mg/ml) was used. After blocking the chips were flushed with deionized water and then dried with nitrogen flow. c. Detection Set-Up The CCD set-up described in the previous example was used. d. Chip Cartridge The cartridge described in the previous example was used. e. Analytes/Samples […]
The concentration of the analyte solutions was 30 pM each. f. […] After 30 min of incubation, the platform was washed with 1 ml of HB and a fluorescence image (“PM” in FIG. 9a) was taken in the resonance position of the chip. Subsequently, the bound fluorescence labeled oligonucleotides were removed (stripped) by injection of 2×1 ml of an aqueous 50% urea solution with 2 min of delay between the injections. After additional 2 min the chip was washed by injection of 2×1 ml HB with 2 min delay between the injections and a fluorescence image (“regeneration” in FIG. 9b) was taken in the resonance position of the chip. […] After 30 min of incubation, the platform was again washed with 1 ml of 1B and a fluorescence image (“MM” in FIG. 9c) was taken in the resonance position of the chip. […] Data Processing The mean intensity of the 2 different groups of capture spots (cPM and cMM) was calculated for both experiments (incubation of 30 pM PM analyte and 30 pM MM analyte). In addition, the difference of the mean intensity cPM-cMM and the ratio cPM/cMM was calculated. h. […]

[3] = tested on: cMM (capture mismatch) oligonucleotide; test: Oligonucleotide microchip hybridization (SNP discrimination), cMM capture spots; type: binding; conditions: 30 pM analyte, 30 min incubation, room temperature, fluorescence at resonance position
Description: as §2, §3, §4

| Compound | Fold change β-actin (rat) (β-actin (rat)) | Fold change CYP 450 2B1 (rat) (CYP 450 2B1 (rat)) | Fold change CYP 450 4A1 (rat) (CYP 450 4A1 (rat)) | Fold change CYP 450 3A2 (rat) (CYP 450 3A2 (rat)) | Fold change GAPDH (rat) (GAPDH (rat)) | Fold change CYP 450 2B2 (rat) (CYP 450 2B2 (rat)) | Fold change CYP 450 2B1 EST.(rat) (CYP 450 2B1 EST.(rat)) | Fold change CYP 450 1A1 (rat) (CYP 450 1A1 (rat)) | Fold change CYP 450 3A1 (human) (CYP 450 3A1 (human)) | mean intensity, cPM spots [1] [counts] | difference of the mean intensity cPM − cMM [2] [counts] | ratio cPM/cMM of mean intensity [2] | mean intensity, cMM spots [3] [counts] |
| --- | --- | --- | --- | --- | --- | --- | --- | --- | --- | --- | --- | --- | --- |
| CCC1(c2ccccc2)C(=O)NC(=O)NC1=O [phenobarbital, sodium salt] | 2.1 | 25 | 1.6 | 2.5 | 2.3 | 32 | 16 | 1.6 | 3.2 |  |  |  |  |
| Cy5-5′GTGTTAAGGTGT3′ (NTGTTAAGGTGT; 5' {Cy5}, sugars by position, backbone and the base at N not given here) [PM] |  |  |  |  |  |  |  |  |  | 1140 | 1116 | 48 | 24 |
| Cy5-5′GTGTTGAGGTGT3′ (NTGTTGAGGTGT; 5' {Cy5}, sugars by position, backbone and the base at N not given here) [MM] |  |  |  |  |  |  |  |  |  | 704 | −1371 | 0.34 | 2075 |
